Results published in article PMC11374673, “Discovery of isoquinoline sulfonamides as allosteric gyrase inhibitors with activity against fluoroquinolone-resistant bacteria” (Nature Chemistry, 2024).
Values joined by “and” are separate entries in the source; they are usually repeats but may differ in a detail not shown here. Identical values can stand only once. “Also recorded” adds a separate entry of the source.

Experiments:
E. coli gyrase [1] = molecular target: T1, E. coli gyrase (Escherichia coli, UniProt P0AES4); assay: Time course of CIP- and Ca2+-mediated DNA cleavage; assay type: biochemical; conditions: 5 µM LEI-800
Procedure: Time courses of CIP- and Ca^2+-mediated DNA cleavage were performed based on a previously published protocol. E. coli gyrase (200 nM) was incubated at 25 °C in 360 µl reactions with assay buffer (35 mM Tris–HCl (pH 7.5), 24 mM KCl, 4 mM MgCl2, 2 mM DTT, 1.8 mM spermidine, 1 mM ATP, 6.5% (wt/vol) glycerol and 0.1 mg ml^−1 albumin) and 500 ng supercoiled pBR322 DNA (Inspiralis Ltd.). For CIP-induced cleavage, 5 µM […] into the master mix. For Ca^2+-induced cleavage, the assay buffer was supplemented with 5 mM CaCl2. […] At selected timepoints, 30 µl aliquots were withdrawn and stopped by an addition of 3 µl 2% SDS and 3 µl 100 mM EDTA. After the time course, aliquots were treated with proteinase K (0.5 mg ml^−1) for 30 min at 37 °C and extracted with 30 µ chloroform:isoamyl alcohol solution (24:1 vol/vol). The aqueous layers from the assays were mixed with 30 µl STEB and run on 1% agarose TAE gels with 10 µg ml^−1 ethidium bromide at 80 V. Gels were visualized and analysed as described for the supercoiling inhibition assays.

E. coli = assay: Checkerboard assay LEI-800 with CIP; assay type: cell-based, Escherichia coli;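 further: bacterial growth read as OD600 after 20 h at 37 °C with shaking, each drug pair tested in triplicate wells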
E. coli DNA gyrase = molecular target: T2, E. coli DNA gyrase (Escherichia coli, UniProt P0AES4); assay: Gyrase supercoiling inhibition, gel-based; assay type: biochemical
T2 construct: purchased Inspiralis Limited
Procedure: Of this stock solution, 27 µl was aliquoted for each reaction in 1.5 ml Eppendorf tubes and supplemented with 0.6 µl of the appropriate compound dilution or corresponding solvent with a final DMSO concentration of 2%. The reactions were started with 3 µl of enzyme (1 U for WT gyrase retrieved from Inspiralis Limited or 25–30 nM gyrase variants purified in house) in dilution buffer (50 mM Tris–HCl (pH 7.5), 100 mM KCl, 2 mM DTT, 1 mM EDTA and 50% (wt/vol) glycerol) for a final volume of 30 µl. Reactions were run at 37 °C for 30 min and stopped with the addition of 30 µl STEB buffer (40% (wt/vol) sucrose, 100 mM Tris–HCl pH 8, 100 mM EDTA, 0.5 mg ml^−1 bromophenol blue) and 30 µl of a chloroform:isoamyl alcohol solution (24:1 vol/vol). After brief vortexing and centrifugation at 2,300g for 1 min, 20 µl of the aqueous phase was loaded onto 1% (wt/vol) agarose gels in TAE ([…]) gel. The gels were run at 85 V for 2 h followed by staining (15 min) in 1 µg ml^−1 ethidium bromide and destaining (5–10 min) in water. […] IC50 curves were generated in GraphPad Prism (v9.0.0) using the non-linear regression curve fit variable slope with four parameters and least squares regression. A. baumannii and P. aeruginosa gyrase supercoiling inhibition assays were set up in the same way as E. coli gyrase supercoiling assays. The enzyme was retrieved from Inspiralis Ltd. (PAG1001 and ABG1001) and tested in-house for activity with ×5 U enzyme used for each reaction.

E. coli gyrase [2] = molecular target: T1, E. coli gyrase; assay: ATP-independent relaxation inhibition; assay type: biochemical; conditions: 200 nM gyrase
Procedure: E. coli relaxation inhibition assays were conducted in a similar manner to supercoiling inhibition assays with the following modifications: spermidine and ATP were omitted from the assay buffer, supercoiled plasmid (pBR322) was used as DNA substrate and 200 nM E. coli gyrase was added to each reaction. After stopping each reaction with STEB, 3 µl 2% SDS was added and tubes were vigorously vortexed before loading the aqueous phase onto the gel.

[3] = Ciprofloxacin 0 nM + LEI-800 0.1 µM
[4] = Ciprofloxacin 0 nM + LEI-800 0.2 µM
[5] = Ciprofloxacin 0 nM + LEI-800 0.4 µM
[6] = Ciprofloxacin 0 nM + LEI-800 0.8 µM
[7] = Ciprofloxacin 0 nM + LEI-800 3.1 µM
[8] = Ciprofloxacin 0 nM + LEI-800 6.2 µM

T1 sequence (P0AES4 whole entry): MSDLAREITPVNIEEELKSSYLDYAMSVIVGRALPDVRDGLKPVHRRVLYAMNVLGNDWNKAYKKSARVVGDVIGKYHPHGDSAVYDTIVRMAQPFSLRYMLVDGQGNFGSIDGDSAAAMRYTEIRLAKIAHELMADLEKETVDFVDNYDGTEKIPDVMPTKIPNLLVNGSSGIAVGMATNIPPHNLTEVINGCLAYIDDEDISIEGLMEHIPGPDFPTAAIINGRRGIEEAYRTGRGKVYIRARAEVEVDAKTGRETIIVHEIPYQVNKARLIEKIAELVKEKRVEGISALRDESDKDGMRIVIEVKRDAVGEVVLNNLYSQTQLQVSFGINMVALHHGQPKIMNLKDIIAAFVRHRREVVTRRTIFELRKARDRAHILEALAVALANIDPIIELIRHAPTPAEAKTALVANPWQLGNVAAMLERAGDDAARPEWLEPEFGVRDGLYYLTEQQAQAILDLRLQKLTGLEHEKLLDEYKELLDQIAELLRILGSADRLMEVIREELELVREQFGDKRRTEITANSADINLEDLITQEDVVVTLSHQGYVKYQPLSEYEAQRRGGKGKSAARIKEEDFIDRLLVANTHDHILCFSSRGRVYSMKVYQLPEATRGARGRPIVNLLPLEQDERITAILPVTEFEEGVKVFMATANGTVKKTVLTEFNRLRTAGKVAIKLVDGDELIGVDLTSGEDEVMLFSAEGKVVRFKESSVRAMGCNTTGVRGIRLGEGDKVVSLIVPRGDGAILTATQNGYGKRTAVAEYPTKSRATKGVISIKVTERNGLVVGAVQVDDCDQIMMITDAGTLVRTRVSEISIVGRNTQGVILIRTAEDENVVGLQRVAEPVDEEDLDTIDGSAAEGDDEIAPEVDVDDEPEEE
T2 sequence (P0AES4 whole entry): as above

O=S(=O)(NC[C@@H]1CC[C@H](c2ccc(-c3cccnc3)cc2)N1)c1cccc2cnccc12 [LEI-800]
CIP-mediated DNA cleavage (E. coli gyrase [1]; 5 µM CIP): amount of cleaved DNA is reduced; also recorded: clear inhibition | Ca2+-mediated DNA cleavage (E. coli gyrase [1]; 5 mM Ca2+): amount of cleaved DNA is reduced; also recorded: strongly inhibited | checkerboard plate reading, Average values (E. coli; [3]): 0.7858 | checkerboard plate reading, replicate wells (E. coli; [3]): 0.7683 and 0.7669 and 0.8222 | checkerboard plate reading, Average values (E. coli; [4]): 0.7715 | checkerboard plate reading, replicate wells (E. coli; [4]): 0.7509 and 0.7706 and 0.7931 | checkerboard plate reading, Average values (E. coli; [5]): 0.7601 | checkerboard plate reading, replicate wells (E. coli; [5]): 0.7802 and 0.7598 and 0.7404 | checkerboard plate reading, Average values (E. coli; [6]): 0.5878 | checkerboard plate reading, replicate wells (E. coli; [6]): 0.6002 and 0.5903 and 0.5728 | checkerboard plate reading, Average values (E. coli; [7]): 0.291 | checkerboard plate reading, replicate wells (E. coli; [7]): 0.2991 and 0.2865 and 0.2872 | checkerboard plate reading, Average values (E. coli; [8]): 0.1602 | checkerboard plate reading, replicate wells (E. coli; [8]): 0.157 and 0.1619 and 0.1616 | checkerboard plate reading, Average values (E. coli; Ciprofloxacin 0 nM + LEI-800 […]): 0.4748 | IC50 (E. coli DNA gyrase): 35 nM | fold more potent than CIP (E. coli DNA gyrase; supercoiling IC50 ratio): > 25 fold | ATP-independent supercoiling relaxation (E. coli gyrase [2]): inhibited
